Experimental data: ChEMBL document CHEMBL5344411, “Phenotypic screening-based drug discovery of furan-2-carboxylic acid derivatives for the amelioration of type 2 diabetes mellitus (T2DM)” (Eur J Med Chem, 2023)
Values belong to the compound of their own block, whether it stands above or below them. Calls of active or inactive are those of the source. The calls are words filed in the database; no cut-off is given here.

Legend:
Hepatocyte [1] = test: Inhibition of gluconeogenesis in Sprague-Dawley rat hepatocytes at 10 uM incubated for 1.5 hrs followed by sodium pyruvate and sodium lactate addition and measured after 4 hrs by colorimetric analysis relative to control; format: functional; details: time 5.5 hrs
Mus musculus [2] = test: Inhibition of gluconeogenesis in CD-1 mouse assessed as decrease in blood glucose level at 50 mg/kg administered via gavage at 2 hrs prior to pyruvate sodium challenge and measured for 2 hrs by pyruvate tolerance test; format: functional, organism-based; details: time 4.0 hrs
Mus musculus [3] = test: Antihyperglycemic activity in diabetic ob/ob mouse assessed as reduction in fasting blood glucose level at 15 mg/kg administered via gavage qd for 24 days and measured on day 24; format: functional, organism-based; details: time 24.0 day
Hepatocyte [4] = test: Inhibition of gluconeogenesis in Sprague-Dawley rat hepatocytes at 1 uM incubated for 1.5 hrs followed by sodium pyruvate and sodium lactate addition and measured after 4 hrs by colorimetric analysis relative to control; format: functional; details: time 5.5 hrs
[5] = Toxicity in diabetic ob/ob mouse assessed as effect on body weight at 15 mg/kg administered via gavage qd for 24 days; format: organism-based; details: in vivo, po, 576 h, time 24 day
Mus musculus [6] = test: Inhibition of gluconeogenesis in CD-1 mouse assessed as decrease in blood glucose level at 50 mg/kg administered via gavage at 1 hr prior to pyruvate sodium challenge and measured for 2 hrs by pyruvate tolerance test; format: functional, organism-based; details: time 3.0 hrs
Hepatocyte [7] = test: Inhibition of gluconeogenesis in Sprague-Dawley rat hepatocytes at 0.3 uM incubated for 1.5 hrs followed by sodium pyruvate and sodium lactate addition and measured after 4 hrs by colorimetric analysis relative to control; format: functional; details: time 5.5 hrs
Hepatocyte [8] = test: Inhibition of gluconeogenesis in Sprague-Dawley rat hepatocytes at 3 uM incubated for 1.5 hrs followed by sodium pyruvate and sodium lactate addition and measured after 4 hrs by colorimetric analysis relative to control; format: functional; details: time 5.5 hrs
Mus musculus [9] = test: Antihyperglycemic activity in diabetic ob/ob mouse assessed as reduction in non-fasting blood glucose level at 15 mg/kg administered via gavage qd for 24 days and measured on day 24; format: functional, organism-based; details: time 24.0 day
[10] = Toxicity in diabetic ob/ob mouse assessed as effect on daily food intake at 15 mg/kg administered via gavage qd for 24 days; format: organism-based; details: in vivo, po, 576 h, time 24 day
[11] = Cmax in CD-1 mouse at 3 mg/kg, po by LC-MS/MS analysis; format: ADME, organism-based; set-up: dose 3 mg/kg, route po; details: in vivo
Mus musculus [12] = test: Antihyperglycemic activity in diabetic ob/ob mouse assessed as reduction in non-fasting blood glucose level at 5 mg/kg administered via gavage qd for 24 days and measured on day 24; format: functional; details: po, 576 h, time 24 day
[13] = Half life in CD-1 mouse at 30 mg/kg, po by LC-MS/MS analysis; format: ADME, organism-based; details: in vivo
[14] = Observed AUCinfinity in CD-1 mouse at 3 mg/kg, po by LC-MS/MS analysis; format: ADME, organism-based; set-up: dose 3 mg/kg, route po; details: in vivo
[15] = Observed AUCinfinity in CD-1 mouse at 30 mg/kg, po by LC-MS/MS analysis; format: ADME, organism-based; set-up: dose 30 mg/kg, route po; details: in vivo
[16] = Cmax in CD-1 mouse at 1 mg/kg, po by LC-MS/MS analysis; format: ADME, organism-based; set-up: dose 1 mg/kg, route po; details: in vivo
[17] = Observed clearance in CD-1 mouse at 1 mg/kg, iv by LC-MS/MS analysis; format: ADME, organism-based; details: in vivo
[18] = Tmax in CD-1 mouse at 30 mg/kg, po by LC-MS/MS analysis; format: ADME, organism-based; details: in vivo
[19] = AUC(last) in CD-1 mouse at 1 mg/kg, iv by LC-MS/MS analysis; format: ADME, organism-based; set-up: dose 1 mg/kg, route iv; details: in vivo
[20] = Half life in CD-1 mouse at 1 mg/kg, iv by LC-MS/MS analysis; format: ADME, organism-based; details: in vivo
[21] = Toxicity in diabetic ob/ob mouse assessed as effect on body weight at 5 mg/kg administered via gavage qd for 24 days; format: organism-based; details: in vivo, po, 576 h, time 24 day
[22] = Observed AUCinfinity in CD-1 mouse at 1 mg/kg, po by LC-MS/MS analysis; format: ADME, organism-based; set-up: dose 1 mg/kg, route po; details: in vivo
[23] = Observed MRTinfinity in CD-1 mouse at 1 mg/kg, iv by LC-MS/MS analysis; format: ADME, organism-based; details: in vivo
[24] = AUC(last) in CD-1 mouse at 30 mg/kg, po by LC-MS/MS analysis; format: ADME, organism-based; set-up: dose 30 mg/kg, route po; details: in vivo
Mus musculus [25] = test: Antihyperglycemic activity in diabetic ob/ob mouse assessed as reduction in fasting blood glucose level at 5 mg/kg administered via gavage qd for 24 days and measured on day 24; format: functional; details: po, 576 h, time 24 day
[26] = Observed AUCinfinity in CD-1 mouse at 10 mg/kg, po by LC-MS/MS analysis; format: ADME, organism-based; set-up: dose 10 mg/kg, route po; details: in vivo
[27] = Observed AUCinfinity in CD-1 mouse at 1 mg/kg, iv by LC-MS/MS analysis; format: ADME, organism-based; set-up: dose 1 mg/kg, route iv; details: in vivo
[28] = Toxicity in diabetic ob/ob mouse assessed as effect on daily food intake at 5 mg/kg administered via gavage qd for 24 days; format: organism-based; details: in vivo, po, 576 h, time 24 day
[29] = Observed MRTinfinity in CD-1 mouse at 30 mg/kg, po by LC-MS/MS analysis; format: ADME, organism-based; details: in vivo
[30] = AUC(last) in CD-1 mouse at 3 mg/kg, po by LC-MS/MS analysis; format: ADME, organism-based; set-up: dose 3 mg/kg, route po; details: in vivo
[31] = Half life in CD-1 mouse at 1 mg/kg, po by LC-MS/MS analysis; format: ADME, organism-based; details: in vivo
[32] = Observed MRTinfinity in CD-1 mouse at 1 mg/kg, po by LC-MS/MS analysis; format: ADME, organism-based; details: in vivo
[33] = AUC(last) in CD-1 mouse at 10 mg/kg, po by LC-MS/MS analysis; format: ADME, organism-based; set-up: dose 10 mg/kg, route po; details: in vivo
[34] = Half life in CD-1 mouse at 3 mg/kg, po by LC-MS/MS analysis; format: ADME, organism-based; details: in vivo
[35] = Oral bioavailability in CD-1 mouse at 1 mg/kg by LC-MS/MS analysis; format: ADME, organism-based; details: in vivo
[36] = Observed volume of distribution at steady state in CD-1 mouse at 1 mg/kg, iv by LC-MS/MS analysis; format: ADME, organism-based; details: in vivo, read-out: Vdss
Mus musculus [37] = test: Inhibition of gluconeogenesis in CD-1 mouse assessed as decrease in blood glucose level at 25 mg/kg administered via gavage at 1 hr prior to pyruvate sodium challenge and measured for 2 hrs by pyruvate tolerance test; format: functional, organism-based; details: time 3.0 hrs
[38] = Tmax in CD-1 mouse at 1 mg/kg, po by LC-MS/MS analysis; format: ADME, organism-based; details: in vivo
[39] = Half life in CD-1 mouse at 10 mg/kg, po by LC-MS/MS analysis; format: ADME, organism-based; details: in vivo
[40] = AUC(last) in CD-1 mouse at 1 mg/kg, po by LC-MS/MS analysis; format: ADME, organism-based; set-up: dose 1 mg/kg, route po; details: in vivo
[41] = Observed MRTinfinity in CD-1 mouse at 3 mg/kg, po by LC-MS/MS analysis; format: ADME, organism-based; details: in vivo
[42] = Cmax in CD-1 mouse at 30 mg/kg, po by LC-MS/MS analysis; format: ADME, organism-based; set-up: dose 30 mg/kg, route po; details: in vivo
[43] = Tmax in CD-1 mouse at 10 mg/kg, po by LC-MS/MS analysis; format: ADME, organism-based; details: in vivo
[44] = Cmax in CD-1 mouse at 10 mg/kg, po by LC-MS/MS analysis; format: ADME, organism-based; set-up: dose 10 mg/kg, route po; details: in vivo
[45] = Oral bioavailability in CD-1 mouse at 10 mg/kg by LC-MS/MS analysis; format: ADME, organism-based; details: in vivo
[46] = Oral bioavailability in CD-1 mouse at 30 mg/kg by LC-MS/MS analysis; format: ADME, organism-based; details: in vivo
[47] = Oral bioavailability in CD-1 mouse at 3 mg/kg by LC-MS/MS analysis; format: ADME, organism-based; details: in vivo
[48] = Observed MRTinfinity in CD-1 mouse at 10 mg/kg, po by LC-MS/MS analysis; format: ADME, organism-based; details: in vivo
[49] = Tmax in CD-1 mouse at 3 mg/kg, po by LC-MS/MS analysis; format: ADME, organism-based; details: in vivo

Structure (SMILES): C=CCc1ccc(OCc2ccc(C(=O)NCc3ccccc3)o2)c(OC)c1
fold change (FC) (Hepatocyte [1]): 0.97

Structure (SMILES): C=CCc1ccc(OCc2ccc(C(=O)O)o2)c(OC)c1
inhibition (Mus musculus [2]): Active | Activity (Mus musculus [3]): Active | fold change (FC) (Hepatocyte [4]): 0.92 | Activity [5]: Non-Toxic | inhibition (Mus musculus [6]): Active | fold change (FC) (Hepatocyte [7]): 0.96 | fold change (FC) (Hepatocyte [8]): 0.73 | Activity (Mus musculus [9]): Active | fold change (FC) (Hepatocyte [1]): 0.57 | Activity [10]: Non-Toxic

Cmax [11]: 1460 ng/mL | half-life [13]: 3.15 h | AUC(0-inf) [14]: 2480 ng·h/mL | AUC(0-inf) [15]: 52800 ng·h/mL | Cmax [16]: 547 ng/mL | clearance [17]: 13.5 mL/min/kg | Tmax [18]: 0.25 h | AUC(0-t) [19]: 1220 ng·h/mL | half-life [20]: 0.828 h | AUC(0-inf) [22]: 709 ng·h/mL | MRT inf [23]: 0.798 h | AUC(0-t) [24]: 52700 ng·h/mL | AUC(0-inf) [26]: 9620 ng·h/mL | AUC(0-inf) [27]: 1250 ng·h/mL | MRT inf [29]: 1.7 h | AUC(0-t) [30]: 2430 ng·h/mL | half-life [31]: 1.8 h | MRT inf [32]: 2.07 h | AUC(0-t) [33]: 9590 ng·h/mL | half-life [34]: 2.26 h | bioavailability [35]: 55.7% | Vd [36]: 0.65 L/kg | Tmax [38]: 0.25 h | half-life [39]: 3.12 h | AUC(0-t) [40]: 678 ng·h/mL | MRT inf [41]: 2.74 h | Cmax [42]: 41000 ng/mL | Tmax [43]: 0.25 h | Cmax [44]: 7580 ng/mL | bioavailability [45]: 78.9% | bioavailability [46]: 144% | bioavailability [47]: 66.7% | MRT inf [48]: 2.31 h | Tmax [49]: 0.25 h
Structure (SMILES): CCCc1ccc(OCc2ccc(C(=O)O)o2)cc1OC
inhibition in vivo at 5 mg/kg (Mus musculus [12]): 34.9% | Activity [21]: Non-Toxic | inhibition in vivo at 5 mg/kg (Mus musculus [25]): 40.5% | fold change (FC) (Hepatocyte [4]): 0.64 | Activity [28]: Non-Toxic | inhibition (Mus musculus [6]): Active | fold change (FC) (Hepatocyte [7]): 0.75 | inhibition (Mus musculus [37]): Active | fold change (FC) (Hepatocyte [8]): 0.16 | fold change (FC) (Hepatocyte [1]): 0.03

Structure (SMILES): C=CCc1cccc(OC)c1OCc1ccc(C(=O)O)o1
fold change (FC) (Hepatocyte [1]): 0.78

Structure (SMILES): CCC(=O)c1ccc(OCc2ccc(C(=O)O)o2)c(OC)c1
fold change (FC) (Hepatocyte [1]): 0.79

Structure (SMILES): CNC(=O)/C=C/c1ccc(OCc2ccc(C(=O)O)o2)c(OC)c1
fold change (FC) (Hepatocyte [1]): 0.85

Structure (SMILES): CCCc1ccc(OCc2ccc(C(=O)O)o2)c(OC)c1
inhibition (Mus musculus [2]): Active | fold change (FC) (Hepatocyte [4]): 1.05 | fold change (FC) (Hepatocyte [7]): 1.19 | fold change (FC) (Hepatocyte [8]): 0.75 | fold change (FC) (Hepatocyte [1]): 0.65

Structure (SMILES): Cc1cc(Br)ccc1OCc1ccc(C(=O)O)o1
fold change (FC) (Hepatocyte [4]): 1.01 | inhibition (Mus musculus [6]): Active | fold change (FC) (Hepatocyte [7]): 0.93 | fold change (FC) (Hepatocyte [8]): 0.37 | fold change (FC) (Hepatocyte [1]): 0.33

Structure (SMILES): CCCc1cccc(OC)c1OCc1ccc(C(=O)O)o1
fold change (FC) (Hepatocyte [1]): 0.67

Structure (SMILES): COc1cc(CCC(=O)N(C)C)ccc1OCc1ccc(C(=O)O)o1
fold change (FC) (Hepatocyte [1]): 0.9
